From EP0696280B1, “SUBSTITUTED PYRROLIDIN-3-YL-ALKYL-PIPERIDINES USEFUL AS TACHYKININ ANTAGONISTS” (MERRELL PHARMACEUTICALS INC., priority 1993, dated 1994)
Counter-ions that a name gives are not always drawn. Like-named read-outs stand apart in the source and are kept apart here.

Experiments:
NK1 receptor = biological target: T1, NK1 receptor (Cavia porcellus, UniProt P30547); experiment: Antagonism of iodinated tachykinin binding to NK1 receptor (125I-Bolton Hunter Lys-3 labeled substance P, guinea pig lung membranes)
T1 construct: Tissues or cells were homogenized with a Polytron in 15 volumes of 50 mM Tris-HCl buffer; tissue Keystone Biologicals, Cleveland, OH; host or cells: guinea pig lung membranes
Protocol: The NK1 receptor affinity of proposed tachykinin antagonists was devaluated in guinea pig lungs (Keystone Biologicals, Cleveland, OH), affinity for the NK2 receptor evaluated in HSKR-1 cells (which are mouse 3T3 fibroblasts expressing the human jejunal NK2 receptor) and NK-3 receptor affinity was evaluated in freshly collected guinea pig cerebral cortex. Tissues or cells were homogenized with a Polytron in 15 volumes of 50 mM Tris-HCl buffer (pH 7.4, 4°C) and centrifuged. The pellet was resuspended in Tris-HCl buffer and was centrifuged; the pellet was washed twice by resuspension. The final pellet was resuspended at a concentration of 40 mg/ml for tissues (guinea pig lung and cerebral cortex) and 20 mg/ml for cells in incubation buffer and remained at room temperature for at least 15 min prior to use. Receptor binding was initiated by addition of 250 µl membrane preparation in duplicate to 0.1 nM of the following radioligands: ^125I-Bolton Hunter Lys-3 labeled substance P; ^125iodohistidyl-1-neurokinin A; and ^125I-Bolton Hunter labeled Lys-4 eledoisin in a final volume of 500 µl of buffer containing 50 mM Tris-HCl (pH 7.4 at room temperature), 0.1% bovine serum albumin, 2 mM MnCl2, 40 µg/ml bacitracin, 4 µg/ml leupeptin and chymostatin, 1 µM thiorphan and various doses of the putative tachykinin antagonists. Incubations were performed at room temperature for 90 min (NK1 receptor assays) or 2 hr (NK2 and NK3 receptor assays); binding was terminated by addition of 50 mM Tris-HCl buffer (pH 7.4, 4°C) and filtration under vacuum through GF/B filters presoaked with 0.1% polyethyleneimine (NK1 receptor assays) or 0.5% bovine serum albumin (NK2 and NK3 receptor assays). Filter bound radioactivity was quantitated in a gamma counter. Nonspecific binding was defined as binding in the presence of 1 µM substance P, neurokinin A, or eledoisin. Specific binding was calculated by subtracting nonspecific binding from total binding. Competition of iodinated SP, NKA, or eledoisin binding by test compounds or standards was expressed as a percentage of this maximum competition. IC50 values (concentration required to inhibit 50% of receptor binding) were generated for each of the test compounds by nonlinear regression using an iterative curve fitting program (GraphPAD Inplot, San Diego, CA).

NK2 receptor = biological target: T2, NK2 receptor (Bos taurus, UniProt P05363); experiment: Antagonism of NK2 receptor mediated (NKA-induced) phosphatidylinositol turnover in SKLKB82#3 cells; type: cell-based
T2 construct: expressed in transfected cells; host or cells: SKLKB82#3 cells
T2 sequence (P05363 1-384): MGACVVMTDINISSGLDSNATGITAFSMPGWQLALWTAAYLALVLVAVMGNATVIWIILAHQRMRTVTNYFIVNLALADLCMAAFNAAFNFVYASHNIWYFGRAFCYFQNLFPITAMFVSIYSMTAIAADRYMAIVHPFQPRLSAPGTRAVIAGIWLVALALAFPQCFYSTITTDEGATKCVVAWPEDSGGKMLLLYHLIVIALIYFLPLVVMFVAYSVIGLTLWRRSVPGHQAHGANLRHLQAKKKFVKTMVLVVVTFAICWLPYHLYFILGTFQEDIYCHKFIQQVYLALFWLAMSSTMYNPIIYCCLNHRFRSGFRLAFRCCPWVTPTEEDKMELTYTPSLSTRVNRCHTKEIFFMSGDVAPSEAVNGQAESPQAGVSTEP
Protocol: Tachykinin-mediated inositol phosphate accumulation was measured in UCll or SKLKB82#3 cells in the presence and absence of NK1 or NK2 receptor antagonists, respectively. Tissues were incubated in Krebs-Henseleit buffer at 37°C with 95% O2-5% CO2 gassing. Tissues were then incubated with fresh buffer containing 100 µCi of myo-[2-^3H(N)] inositol at 37°C for 60 min with gentle gassing. After washing twice at room temperature in 5 ml buffer containing 10 mM LiCl, tissues were incubated for 30 min at room temperature with a buffer change at 15 min. Buffer was removed and Krebs-Henseleit buffer (containing 40 µg/ml bacitracin, 4 µg/ml each of leupeptin and chymostatin, 0.1% bovine serum albumin and 10 mM each of thiorphan and LiCl) added. After 15 min, SP was added to UCll cells or NKA to SKLKB82#3 cells at various concentrations to start the reaction. After incubation for 60 min at room temperature the reaction was terminated by addition of 930 µl chloroform: methanol (1:2 by volume) to each tube, followed by 310 µl chloroform and 310 µl doubly distilled water. Samples were vortexed, centrifuged, and 0.9 ml of the aqueous (top) phase removed and added to 2 ml ddH2O. The mixture was vortexed and loaded onto a 50% Bio-Rad AG 1-X8 (formate form, 100-200 mesh) exchange column (Bio-Rad Laboratories, Hercules, CA). The columns were washed, in order, with: 1) 10 ml doubly distilled water, 2) 5 ml of 5 mM disodium tetraborate/60 mM sodium formate, and 3) 5 ml of 1 M ammonium formate/0.1 M formic acid. The third elution was collected and 1 ml counted in 7 ml scintillation fluid. A 50 µl aliquot of the organic (bottom) phase was removed, dried in a scintillation vial and counted in 7 ml scintillation fluid.
The ratio of DPM in the aqueous phase aliquot (total inositol phosphates) to the DPM in the 50 µl organic phase aliquot (total [^3H]inositol incorporated) was calculated for each sample. Data are expressed as a percent of agonist-induced accumulation of [^3H]-inositol phosphates over basal levels. The ratios in the presence of test compound and/or standards were compared to the ratios for control samples (i.e. no stimulating agonist). Dose-response graphs were constructed and the abilities of the test compounds to inhibit tachykinin-induced phosphatidylinositol turnover determined with the aid of a computer program. […] Data is expressed as percent stimulation of total inositol phosphate accumulation over basal levels and normalized to the maximum response produced by SP. […] Schild analysis is performed using dose response curves (such as those presented in Figures 1a and 1b) to obtain a value indicative of the strength of a competitive antagonist and is expressed as the pA2, which is the negative logarithm of the molar concentration of antagonist which reduces the effect of a dose of agonist to one-half of that expected at the dose of agonist. […]
Values are mean (95% confidence limits) derived from Schild analysis of 2-3 experiments per compound per receptor.

[1] = Schild analysis, NKA in SKLKB82#3 cells, mean (95% confidence limits), 2-3 experiments

T1 sequence (P30547 whole entry): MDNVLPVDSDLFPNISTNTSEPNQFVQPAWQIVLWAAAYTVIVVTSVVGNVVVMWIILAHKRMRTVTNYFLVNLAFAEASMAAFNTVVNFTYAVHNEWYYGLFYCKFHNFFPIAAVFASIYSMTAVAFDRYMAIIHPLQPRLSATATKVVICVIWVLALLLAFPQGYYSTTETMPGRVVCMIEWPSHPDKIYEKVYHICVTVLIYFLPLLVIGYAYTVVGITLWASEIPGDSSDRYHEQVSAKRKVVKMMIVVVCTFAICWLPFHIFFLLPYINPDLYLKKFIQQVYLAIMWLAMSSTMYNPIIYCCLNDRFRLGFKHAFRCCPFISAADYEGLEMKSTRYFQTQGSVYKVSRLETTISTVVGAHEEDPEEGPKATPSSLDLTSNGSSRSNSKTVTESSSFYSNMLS

Row | SMILES | IC50 (NK1 receptor) | NK-2 RECEPTOR -SLOPE (NK2 receptor; [1]) | Kb (NK2 receptor; Schild analysis, NKA in SKLKB82#3 cells, mean (95% confidence limits), 2-3 experiments, read-out: NK-2 RECEPTOR pA2 (converted)) | Kb (NK2 receptor) | affinity for NK1 receptors (NK1 receptor; result in words) | antagonism of the receptor mediated NKA induced PI turnover (NK2 receptor; SKLKB82#3 cells, Figure 1b, result in words)
1 | COc1cccc(OC)c1C(=O)N1CCC(CCN2CCC(C(N)=O)(c3ccccc3)CC2)(c2ccc(Cl)c(Cl)c2)C1 (racemic) [Example 5A, 1-[2-[3-(3,4-dichloro-phenyl-3-yl)-1-(2,6-dimethoxy-benzoyl)-pyrrolidin-3-yl]-ethyl]-4-phenyl-piperidine-4-carboxylic acid amide hydrochloride] | 20 nM | 1.11 (0.99-1.23) | 44.7 nM |  |  | 
2 | COc1cc(C(=O)N2CCC(CCN3CCC(C(N)=O)(c4ccccc4)CC3)(c3ccc(Cl)c(Cl)c3)C2)cc(OC)c1OC (racemic) [Example 3A, 1-[2-[3-(3,4-dichloro-phenyl-3-yl)-1-(3,4,5-trimethoxy-benzoyl)-pyrrolidin-3-yl]-ethyl] -4-phenyl-piperidine-4-carboxylic acid amide hydrochloride] | 5.97 nM | 0.73 (0.49-0.97) |  | 1.78 nM |  | 
3 | COc1cc(C(=O)N2CCC(CCN3CCC(C(N)=O)(c4ccccc4)CC3)(c3ccc(Cl)c(Cl)c3)C2)cc(OC)c1OC (stereo not drawn) [Example 3, 1-[2-[3-(3,4-dichloro-phenyl)-1-(3,4,5-trimethoxy-benzoyl)-pyrrolidin-3-yl]-ethyl]-4-phenyl-piperidine-4-carboxylic acid amide] | 5 nM |  |  |  | high affinity | dose related antagonism
